Reference: patent US20130047297A1, “POLYNUCLEOTIDE MOLECULES FOR GENE REGULATION IN PLANTS” (priority 2010, published 2013)

Experiments:
Assay type in all cases: in vivo
[1] = test system: Glyphosate-resistant Palmer amaranth plants having 49 or 63 copies EPSPS; assay: Salicylic acid pretreatment with dsRNA and glyphosate (Example 15); settings: 15 millimolar SA 1, 5, or 24 hours before dsRNA; glyphosate 72 hours later; 7 days after glyphosate
Experimental: Salicylic acid (SA) induces virus resistance in tobacco; see, e. g., Chivasa et al. (1997) Plant Cell, 19:547-557. Glyphosate-resistant Palmer amaranth plants having 49 or 63 copies EPSPS were pretreated with 15 millimolar SA. A solution of the four oligonucleotide-size “short” EPSPS dsRNA molecules (described in Example 1) was applied by hand at 1, 5, or 24 hours after treatment with SA, followed 72 hours later by spraying with glyphosate (1682 g acid equivalent per hectare of Roundup® WeatherMAX® brand herbicide).

[2] = test system: Glyphosate-resistant Palmer amaranth plants (33, 36, or 57 copies EPSPS); assay: Spermine, spermidine or ammonium sulfate with dsRNA then glyphosate (Example 35, FIG. 39); settings: 10 mM spermidine alone
Experimental: The effect of the polyamine cations spermine (N,N′-bis(3-aminopropyl)butane-1,4-diamine) and spermidine (N-(3-aminopropyl)butane-1,4-diamine) on herbicidal activity of topically applied polynucleotides (RNA) on glyphosate-resistant Palmer amaranth plants was investigated. […] The dsRNA polynucleotide solutions were prepared with either 1 or 10 millimolar spermine or spermidine or 2% ammonium sulfate, in a 10 millimolar sodium phosphate (pH 6.8) buffer. Control solutions (without polynucleotides) were prepared with either 1 or 10 millimolar spermine or spermidine or 2% ammonium sulfate, in a 10 millimolar sodium phosphate (pH 6.8) buffer. Glyphosate-resistant Palmer amaranth plants (33, 36, or 57 copies EPSPS) were pre-sprayed with 1% Silwet L-77. The dsRNA polynucleotide solutions (11.6 grams/acre) or buffer solutions were applied as drops on four lower fully expanded leaves of glyphos ate resistant Palmer amaranth by pipetting. Two days following polynucleotide treatment the plants were sprayed with glyphosate (3360 g acid equivalent per hectare of Roundup® WeatherMAX® brand herbicide).

[3] = test system: endogenous PDS, EPSPS, or RuBisCO genes from Nicotiana benthamiana; assay: PDS, EPSPS, RuBisCO anti-sense polynucleotides on Nicotiana benthamiana, plant height (Example 33); settings: PDS 25 nanomoles, EPSPS and RuBisCO 50 nanomoles of each per plant
Experimental: Nicotiana benthamiana plants were treated using a procedure similar to that described in Example 12. Polynucleotide solution (or mixed polynucleotides in the case of EPSPS and RuBisCO) were prepared in 0.01% (v/v) Silwet L-77 and 2% (w/v) ammonium sulfate in 5 millimolar sodium phosphate, pH 6.8. Two fully expanded leaves per plant were dipped into 0.1% Silwet L-77 solution freshly made with ddH2O for a few seconds, and allowed to dry. About 30 minutes later, 20 microliters of polynucleotide solution, was applied to each of the two pre-treated leaves. For PDS, each of 5 plants received 25 nanomoles of the PDS anti-sense polynucleotide (SEQ ID NO:34); for EPSPS, each of 5 plants received 50 nanomoles of each EPSPS anti-sense polynucleotide (SEQ ID NOS:279-284); and for RuBisCO, each of 5 plants received 50 nanomoles of each RuBisCO anti-sense polynucleotide (SEQ ID NOS:288-295). Paired control plants were treated with buffer (0.01% (v/v) Silwet L-77 and 2% (w/v) ammonium sulfate in 5 millimolar sodium phosphate, pH 6.8).

[4] = test system: Nicotiana benthamiana phytoene desaturase; assay: Topical oligonucleotides/polynucleotides on tobacco, PDS bleaching and chlorophyll (Example 10)
Experimental: The following procedure was used for all assays described in this example. Four-week old Nicotiana benthamiana plants were used in all assays. Plants were treated with 0.1% Silwet L-77 solution freshly made with ddH2O. Two fully expanded leaves per plant (one cotyledon, one true leaf) were dipped into the Silwet L-77 solution for a few seconds, and allowed to dry for 15-30 minutes before application of the polynucleotide composition. Final concentration for each oligonucleotide or polynucleotide was 25 microM (in 0.01% Silwet L-77, 5 mM sodium phosphate buffer, pH 6.8) unless otherwise stated. 20 microliters of the solution was applied to the top surface of each of the two pre-treated leaves to provide a total of 40 microliters (1 nmol oligonucleotide or polynucleotide) for each plant. Leaf bleaching was observed 3 days post treatment.
FIG. 13 illustrates phenotypes observed at day 12 after treatment in another assay of the effect from twelve combinations of polynucleotides or oligonucleotides (see Table 4). Table 4 also lists observations of visible bleaching of the plants at day 5 after treatment and the results of chlorophyll measurements taken at days 7 and 12 after treatment. Chlorophyll measurements are an indication of suppression of the target gene phytoene desaturase, and measurements were taken at 6 spots on the apical area, focussing on visibly bleached leaves or (in plants without visible bleaching) on leaves in equivalent locations on the plants; lower chlorophyll measurement values indicate suppression of phytoene desaturase.

[5] = test system: endogenous Nicotiana benthamiana Argonaute-1 (AGO1) gene; assay: AGO1 anti-sense with PDS anti-sense, systemic bleaching (Example 33); settings: PDS 25 nanomoles; AGO1 50 nanomoles of each of 14; combined applied on separate leaves
Experimental: Nicotiana benthamiana plants were treated using a procedure similar to that described in Example 12. Polynucleotide solution (or mixed polynucleotides in the case of AGO1) were prepared in 0.01% (v/v) Silwet L-77 and 2% (w/v) ammonium sulfate in 5 millimolar sodium phosphate, pH 6.8. Two fully expanded leaves per plant were dipped into 0.1% Silwet L-77 solution freshly made with ddH2O for a few seconds, and allowed to dry. About 30 minutes later, 20 microliters of polynucleotide solution was applied to each of the two pre-treated leaves. For PDS, each of 5 plants received 25 nanomoles of the PDS anti-sense polynucleotide (SEQ ID NO:34); for AGO1, each of 5 plants received 50 nanomoles of each of the 14 AGO1 anti-sense polynucleotides (SEQ ID NOS:300-313); for PDS and AGO combined treatments, each of 5 plants received 25 nanomoles of the PDS anti-sense polynucleotide (SEQ ID NO:34) and 50 nanomoles of each of the 14 AGO1 anti-sense polynucleotides (SEQ ID NOS:300-313) applied on separate leaves. Paired control plants were treated with buffer (0.01% (v/v) Silwet L-77 and 2% (w/v) ammonium sulfate in 5 millimolar sodium phosphate, pH 6.8). No difference was observed between plants treated with the AGO1 anti-sense polynucleotides and the plants treated with buffer alone.

[6] = test system: glyphosate-resistant soybean plants; assay: Synthetic Pol III gene dsDNA, soybean crop (Example 8); settings: 0.1 wt % Silwet L-77 and dsDNA sprayed, glyphosate 7 days later; 15 days later
From the text: (§1) This example illustrates the utility of employing a synthetic Pol III gene in compositions and methods of this invention. With reference to SEQ ID NO:3 and FIG. 2, a synthetic Pol III gene is created using elements from an Arabidopsis thaliana U6 snRNA gene to provide a dsDNA molecule with two copies of RGCCCR elements (bold and underlined), an upstream sequence element (USE) having the sequence “[…]” (SEQ ID NO:4, bold and underlined), a TATA box (bold and underlined), a “G” nucleotide (bold and underlined), anti-sense DNA (italics) corresponding to a bacterial DNA encoding an EPSPS protein (see U.S. Pat. No. RE39,247) that imparts resistance to glyphosate herbicide when expressed in transgenic corn plants, an “[…]” element (SEQ ID NO:5, bold and underlined) embedded in the anti-sense DNA, an “[…]” element (SEQ ID NO:6, bold and underlined) followed by sense DNA (lower case) and a “TTTTTT” terminator element (SEQ ID NO:7, bold and underlined). A solution of 0.1 wt % Silwet L-77 brand organosilicone surfactant and a solution of multiple copies of the dsDNA molecule are sprayed onto leaves of volunteer glyphosate-resistant corn plants growing in a field of glyphosate-resistant soybean plants, followed 7 days later by treatment with Roundup WeatherMAX® brand glyphosate herbicide. […]

[7] = test system: volunteer glyphosate-resistant corn plants; assay: Synthetic Pol III gene dsDNA on volunteer corn (Example 8); settings: 0.1 wt % Silwet L-77 and dsDNA sprayed, glyphosate 7 days later; 15 days later
From the text: as §1

Molecule: O=C(O)c1ccccc1O [SA, Salicylic acid]
- improvement of the effects of the dsRNAs and glyphosate activity (plant height) [1]: No improvement

Molecule: NCCCCNCCCN [spermidine, N-(3-aminopropyl)butane-1,4-diamine]
- plant outcome, 33-copy [2]: stunted

Molecule: PDS 21-mer anti-sense ssDNA: SEQ ID NO:34 (antisense CATCTCCTTTAATTGTACTGC; DNA, backbone not given here)
- plant height (FIG. 36) ([3]; 12 days (PDS and EPSPS) or 10 days (RuBisCO) after treatment): severe stunting
- other phenotype [3]: bleaching
- bleaching of apical leaves (FIG. 15) ([4]; another assay): strong bleaching
- bleaching of apical leaves (FIG. 14) ([4]; topical treatment): Strong bleaching
- systemic bleaching / difference from buffer [5]: displayed systemic bleaching

B1: synthetic Pol III gene: dsDNA, SEQ ID NO:3, U6 snRNA elements with anti-sense and sense DNA of bacterial EPSPS (nucleic acid)
DNA: GGCCCATAGGCCTTTTTCTAAAATAGGCCCATTTAAGCTATTAACAATCTTCAAAAGTACCACATCGCTTAGGTAAAGAAAGCAGCTGAGTTTATATATGGTTAGAGACGAAGTAGTGATTGCGACGAGCGACGTCTCGCCCTCATCGCAATCCACGCCATTGAGCTTGAGGCCATTGGCGACGGCCGAGAGGCGGTCGCTTAAGATTAGCATGTCCTTGACGCGGAGTTCTTCCAGACCGTTCATCACGGTCGCCCCTTCCGCGAAGGCGGCGGCGACAGCGAGAATCGGATATTCGTCGATCATCGAAGGCGCGCGGTCTTCCGGCACCGTGACGCATAAACACGGTGCCGGAAGACCGCGCGCCTTCGATGATCGACGAATATCCGATTCTCGCTGTCGCCGCCGCCTTCGCGGAAGGGGCGACCGTGATGAACGGTCTGGAAGAACTCCGCGTCAAGGAAAGCGACCGCCTCTCGGCCGTCGCCAATGGCCTCAAGCTCAATGGCGTGGATTGCGATGAGGGCGAGACGTCGCTCGTCGTTTTTTTTGGCAAAAA
- soybean plant outcome [6]: thriving
- corn plant outcome [7]: dead
